Results published in publication PMC10535710, “Beauvericin suppresses the proliferation and pulmonary metastasis of osteosarcoma by selectively inhibiting TGFBR2 pathway” (International Journal of Biological Sciences, 2023).

Tests used:
TGFBR2 K252R = biological target: T1, TGFBR2 K252R (Homo sapiens, UniProt P37173, K252R); test: DARTS (protection from pronase) in OS cells expressing the mutant; type: cell-based
T1 construct: TGFBR2 K252R overexpression plasmid transfected into OS cells

TGFBR2 = biological target: T2, TGFBR2 (Homo sapiens, UniProt P37173); test: TR-FRET LanthaScreen Eu Kinase Binding Assay (tracer […]; reported as kinase activity inhibition); supported by MST, DARTS on recombinant protein, CETSA
T2 construct: MST used recombinant human TGFBR2 ECD
T2 sequence (P37173 188-567 limits assumed): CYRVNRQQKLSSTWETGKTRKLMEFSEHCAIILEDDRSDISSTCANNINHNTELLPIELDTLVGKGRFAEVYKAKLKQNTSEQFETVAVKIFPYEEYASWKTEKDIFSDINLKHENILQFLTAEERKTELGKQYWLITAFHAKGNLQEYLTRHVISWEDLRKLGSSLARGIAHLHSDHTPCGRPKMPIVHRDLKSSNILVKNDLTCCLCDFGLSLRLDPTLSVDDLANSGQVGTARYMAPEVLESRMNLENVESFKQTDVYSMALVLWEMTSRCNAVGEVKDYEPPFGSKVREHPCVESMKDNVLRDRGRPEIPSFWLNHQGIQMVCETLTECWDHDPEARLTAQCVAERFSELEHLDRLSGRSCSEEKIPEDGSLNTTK

T1 sequence (P37173 23-567 K252R): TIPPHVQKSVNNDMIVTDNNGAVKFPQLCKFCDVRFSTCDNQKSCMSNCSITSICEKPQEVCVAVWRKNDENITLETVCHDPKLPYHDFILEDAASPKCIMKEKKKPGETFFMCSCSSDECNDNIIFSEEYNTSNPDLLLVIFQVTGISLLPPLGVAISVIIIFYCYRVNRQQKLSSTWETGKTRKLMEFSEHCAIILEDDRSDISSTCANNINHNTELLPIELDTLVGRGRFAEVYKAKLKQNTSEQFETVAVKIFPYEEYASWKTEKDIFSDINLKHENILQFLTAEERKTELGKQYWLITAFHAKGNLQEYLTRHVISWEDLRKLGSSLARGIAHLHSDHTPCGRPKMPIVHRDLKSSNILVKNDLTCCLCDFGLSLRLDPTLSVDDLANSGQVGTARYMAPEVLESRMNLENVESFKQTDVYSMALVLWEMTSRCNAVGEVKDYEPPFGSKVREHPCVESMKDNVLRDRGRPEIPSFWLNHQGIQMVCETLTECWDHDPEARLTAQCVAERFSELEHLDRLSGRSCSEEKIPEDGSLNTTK

With `CC(C)[C@H]1OC(=O)[C@H](Cc2ccccc2)N(C)C(=O)[C@@H](C(C)C)OC(=O)[C@H](Cc2ccccc2)N(C)C(=O)[C@@H](C(C)C)OC(=O)[C@H](Cc2ccccc2)N(C)C1=O` [BEA, beauvericin] the “DARTS (protection from pronase) in OS cells expressing the mutant” value (TGFBR2 K252R) was “BEA suppressed the pronase-induced degradation of TGFBR2^K252R (Figure S7A-B), indicating that BEA may bind to TGFBR2 at N332” and the IC50 (TGFBR2) was 1.36 ± 0.21 µM.
